For 16 compounds, IC50 results are on record in patent US11564923B2, “Compounds and pharmaceutical compositions thereof for the treatment of inflammatory disorders” (Galapagos NV, priority 2017, dated 2023).

For orientation: IC50 means the concentration that gives 50% inhibition.

What all share (type): biochemical
In test [1] the target is Recombinant human JAK3 catalytic domain (amino acids 781-1124) (Homo sapiens, UniProt P52333). Briefly: JAK3 inhibition assay. How it is done:
After 45 min at 30° C., reactions are stopped by adding 25 μL/well of 150 mM phosphoric acid. […] Plates are washed 6 times with 300 μL per well of a 75 mM phosphoric acid solution and the bottom of the plates is sealed. […] Kinase activity is calculated by subtracting counts per min (cpm) obtained in the presence of a positive control inhibitor (10 μM staurosporine) from cpm obtained in the presence of vehicle. The ability of a test compound to inhibit this activity (or percentage inhibition) is determined as: […]
cpm test compound=cpm determined for sample with test compound present cpm control=cpm determined for sample with positive control inhibitor cpm vehicle=cpm determined in the presence of vehicle
Dose dilution series were prepared for the compounds enabling the testing of dose-response effects in the JAK3 assay and the calculation of the IC50 for each compound. Each compound is routinely tested at concentration of 20 μM followed by a 1/5 serial dilution, 10 points in a final concentration of 1% DMSO.

Test [2] concerns the target T1, Recombinant human TYK2 catalytic domain (amino acids 871-1187) (Homo sapiens, UniProt P29597).
T1 construct: catalytic domain (amino acids 871-1187)
T1 sequence (P29597 871-1187): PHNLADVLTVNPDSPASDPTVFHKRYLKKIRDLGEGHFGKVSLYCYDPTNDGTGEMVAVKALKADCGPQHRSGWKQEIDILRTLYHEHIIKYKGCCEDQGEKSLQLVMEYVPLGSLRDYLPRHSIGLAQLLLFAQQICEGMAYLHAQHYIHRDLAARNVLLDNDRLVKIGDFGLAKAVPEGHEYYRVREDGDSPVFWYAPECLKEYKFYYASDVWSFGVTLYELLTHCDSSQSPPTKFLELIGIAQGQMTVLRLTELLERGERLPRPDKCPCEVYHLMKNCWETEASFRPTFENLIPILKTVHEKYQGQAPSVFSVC
The test can be described thus: TYK2 radioactive assay polyGT substrate. Also: 0.1 µM ATP. Put shortly: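 Reaction at 30° C. for 120 min, ended with 150 mM phosphoric acid, washed, counted; percent inhibition scaled between vehicle and 10 μM staurosporine cpm.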

For test [3], the target named is T2, Recombinant human JAK1 (catalytic domain, amino acids 866-1154) (Homo sapiens, UniProt P23458).
T2 construct: catalytic domain, amino acids 866-1154
Briefly: JAK1 inhibition assay. As to conditions: read-out: JAK1 potency IC50. How it is done: After 60 min at room temperature, reactions are stopped by adding 20 μL/well of detection mixture (1× detection buffer (Perkin Elmer, catalog number CR97-100), 0.5 nM Europium-anti-phosphotyrosine (PT66) (Perkin Elmer, catalog number AD0068/AD0069), 10 mM EDTA). […] Kinase activity is calculated by subtracting the ratio obtained in the presence of a positive control inhibitor (1 μM staurosporine) from the ratio obtained in the presence of vehicle. The ability of a test compound to inhibit this activity (or percentage inhibition) is determined as:
(§1) [formula] wherein Fluorescent ratio test compound=ratio RFU665/RFU615*1000 determined for sample with test compound present Fluorescent ratio control=ratio RFU665/RFU615*1000 determined for sample with positive control inhibitor Fluorescent ratio vehicle=ratio RFU665/RFU615*1000 determined in the presence of vehicle
Dose dilution series were prepared for the compounds enabling the testing of dose-response effects in the JAK1 assay and the calculation of the IC50 for the compound. Each compound is routinely tested at concentration of 20 μM followed by a 1/5 serial dilution, 10 points in a final concentration of 1% DMSO. […] The data are expressed as the average IC50 from the assays.

Test [4] addresses T3, Recombinant human JAK2 (catalytic domain, amino acids 808-1132) (Homo sapiens, UniProt O60674).
T3 construct: catalytic domain, amino acids 808-1132
Briefly: JAK2 inhibition assay. Also: 0.7 µM ATP. Conditions: read-out: JAK2 potency IC50. How it is done: After 60 min at room temperature, reactions are stopped by adding 20 μL/well of detection mixture (1× detection buffer (Perkin Elmer, catalog number CR97-100) with 0.5 nM Europium-anti-phosphotyrosine (PT66) (Perkin Elmer, catalog number AD0068/AD0069) and 10 mM EDTA). […] Kinase activity is calculated by subtracting the ratio obtained in the presence of a positive control inhibitor (1 μM staurosporine) from the ratio obtained in the presence of vehicle. The ability of a test compound to inhibit this activity (or percentage inhibition) is determined as:
as §1
Dose dilution series are prepared for compound enabling the testing of dose-response effects in the JAK2 assay and the calculation of the IC50 for the compound. Each compound is routinely tested at concentration of 20 μM followed by a 1/5 serial dilution, 10 points in a final concentration of 1% DMSO. […] The data are expressed as the average IC50 from the assays.

T2 sequence (P23458 866-1154): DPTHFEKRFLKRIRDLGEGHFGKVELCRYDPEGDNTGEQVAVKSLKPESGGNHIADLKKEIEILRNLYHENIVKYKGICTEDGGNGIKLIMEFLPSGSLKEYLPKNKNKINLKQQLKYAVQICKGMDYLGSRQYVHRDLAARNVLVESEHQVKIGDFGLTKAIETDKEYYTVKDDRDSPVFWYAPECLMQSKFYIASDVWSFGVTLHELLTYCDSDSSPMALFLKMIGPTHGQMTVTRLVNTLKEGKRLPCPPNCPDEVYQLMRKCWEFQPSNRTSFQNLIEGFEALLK
Recombinant human JAK3 catalytic domain (amino acids 781-1124), sequence (P52333 781-1124): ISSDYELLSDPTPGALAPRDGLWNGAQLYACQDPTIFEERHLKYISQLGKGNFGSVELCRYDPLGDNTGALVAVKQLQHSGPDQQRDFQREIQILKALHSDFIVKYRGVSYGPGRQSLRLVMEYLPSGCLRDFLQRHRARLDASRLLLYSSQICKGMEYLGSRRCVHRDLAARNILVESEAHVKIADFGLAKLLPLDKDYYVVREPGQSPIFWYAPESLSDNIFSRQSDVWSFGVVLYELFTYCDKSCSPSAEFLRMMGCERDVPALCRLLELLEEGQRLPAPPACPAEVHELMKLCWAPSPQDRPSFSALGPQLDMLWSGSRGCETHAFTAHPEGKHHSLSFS
T3 sequence (O60674 808-1132): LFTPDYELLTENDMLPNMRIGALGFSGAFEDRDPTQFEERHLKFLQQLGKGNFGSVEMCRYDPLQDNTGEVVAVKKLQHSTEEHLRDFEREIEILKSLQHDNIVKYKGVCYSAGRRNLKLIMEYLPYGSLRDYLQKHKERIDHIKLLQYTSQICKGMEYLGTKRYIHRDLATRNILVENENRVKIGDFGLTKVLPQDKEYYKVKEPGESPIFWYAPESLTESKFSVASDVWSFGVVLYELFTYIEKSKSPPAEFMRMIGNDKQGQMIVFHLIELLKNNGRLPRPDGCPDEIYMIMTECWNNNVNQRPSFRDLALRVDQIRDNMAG

On to `Cc1cc(C#N)ncc1N(CCCO)c1cc(Nc2cc(N)ncn2)c2ncn(C)c2n1` [Compound 5, 5-[[7-(6-Amino-pyrimidin-4-ylamino)-3-methyl-3H-imidazo[4,5-b]pyridin-5-yl]-(3-hydroxy-propyl)-amino]-4-methyl-pyridine-2-carbonitrile], for which the IC50 was 329 nM in test [1], 0.95 nM in test [2], 23.4 nM in test [3] and 6.96 nM in test [4].

Regarding `C[C@H](C1CC1)N(C)c1cc(Nc2cc(N)ncn2)c2ncn(C)c2n1` [Compound 16, N7-(6-aminopyrimidin-4-yl)-N5-[(1R)-1-cyclopropylethyl]-N5,3-dimethyl-imidazo[4,5-b]pyridine-5,7-diamine], the IC50 amounted to 221 nM in test [1], 13.4 nM in test [2], 71 nM in test [3] and 25 nM in test [4].

Consider `COCCCNc1cc(Nc2cc(Oc3cnc(C#N)cc3C)nc3c2ncn3C)ncn1` [Compound 32, 5-{7-[6-(3-Methoxy-propylamino)-pyrimidin-4-ylamino]-3-methyl-3H-imidazo[4,5-b]pyridin-5-yloxy}-4-methyl-pyridine-2-carbonitrile], for which the IC50 in test [1] turned out to be 601 nM; in test [2], 6.08 nM; in test [3], 117 nM; in test [4], 26.2 nM.

For the compound `Cc1cc(C#N)ncc1Oc1cc(Nc2cc(NCCCO)ncn2)c2ncn(C)c2n1` [Compound 34, 5-{7-[6-(3-Hydroxy-propylamino)-pyrimidin-4-ylamino]-3-methyl-3H-imidazo[4,5-b]pyridin-5-yloxy}-4-methyl-pyridine-2-carbonitrile], the IC50 worked out at 1110 nM in test [1], 5.49 nM in test [2], 101 nM in test [3] and 23.4 nM in test [4].

Turning to `Cc1cc(C#N)ncc1Oc1cc(Nc2cc(NCC3COCCO3)ncn2)c2ncn(C)c2n1` (stereo not shown) [Compound 35, 5-(7-{6-[([1,4]Dioxan-2-ylmethyl)-amino]-pyrimidin-4-ylamino}-3-methyl-3H-imidazo[4,5-b]pyridin-5-yloxy)-4-methyl-pyridine-2-carbonitrile], the IC50 in test [1] was 452 nM; in test [2], 2.3 nM; in test [3], 52.4 nM; in test [4] it was 20.4 nM.

As for `COC(C)CCNc1cc(Nc2cc(Oc3cnc(C#N)cc3C)nc3c2ncn3C)ncn1` (stereo not shown) [Compound 37, 5-{7-[6-(3-Methoxy-butylamino)-pyrimidin-4-ylamino]-3-methyl-3H-imidazo[4,5-b]pyridin-5-yloxy}-4-methyl-pyridine-2-carbonitrile], the IC50 stood at 439 nM in test [1], 3.62 nM in test [2], 84.3 nM in test [3] and 20.1 nM in test [4].

Turning to `CCNC(=O)c1cnc(Nc2cc(Oc3cnc(C#N)cc3C)nc3c2ncn3C)cc1C` [Compound 64, 6-[[5-[(6-cyano-4-methyl-3-pyridyl)oxy]-3-methyl-imidazo[4,5-b]pyridin-7-yl]amino]-N-ethyl-4-methyl-pyridine-3-carboxamide], the IC50 in test [1] amounted to 3220 nM; in test [2] it was 51.6 nM; in test [3], 343 nM; in test [4], 214 nM.

Consider `Cc1cc(C#N)ncc1Nc1cc(Nc2ccc(C(=O)N(C)C)nn2)c2ncn(C)c2n1` [Compound 76, 6-[[5-[(6-cyano-4-methyl-3-pyridyl)amino]-3-methyl-imidazo[4,5-b]pyridin-7-yl]amino]-N,N-dimethyl-pyridazine-3-carboxamide], for which the IC50 in test [1] is 579 nM; in test [2] it was 6.71 nM; in test [3] it was 200 nM; in test [4], 19.9 nM.

As for `CCNC(=O)c1ccc(Nc2cc(Oc3cnc(C#N)cc3C)nc3c2ncn3C)nc1C` [Compound 78, 6-[[5-[(6-cyano-4-methyl-3-pyridyl)oxy]-3-methyl-imidazo[4,5-b]pyridin-7-yl]amino]-N-ethyl-2-methyl-pyridine-3-carboxamide], the IC50 came to 737 nM in test [1], 9.69 nM in test [2], 60.2 nM in test [3] and 31.6 nM in test [4].

As to `Cc1cc(C#N)ncc1Oc1cc(Nc2ccc(C(N(C)C)C(F)(F)F)cn2)c2ncn(C)c2n1` (stereo not shown) [Compound 79], the IC50 in test [1] came to 573 nM; in test [2] it was 3.57 nM; in test [3], 18.5 nM; in test [4] it was 5.58 nM.

Regarding `CC(Nc1cc(Nc2cc(N)ncn2)c2ncn(C)c2n1)C1CCC1` (stereo not shown) [Compound 94, N7-(6-aminopyrimidin-4-yl)-N5-(1-cyclobutylethyl)-3-methyl-imidazo[4,5-b]pyridine-5,7-diamine], the IC50 in test [1] came out at 87.1 nM; in test [2], 30.7 nM; in test [3], 217 nM; in test [4], 39.7 nM.

As for `Cn1cnc2c(Nc3cc(N)ncn3)cc(NC(C3CC3)C3CC3)nc21` [Compound 95, N7-(6-aminopyrimidin-4-yl)-N5-(dicyclopropylmethyl)-3-methyl-imidazo[4,5-b]pyridine-5,7-diamine], the IC50 in test [1] came to 177 nM; in test [2], 26.3 nM; in test [3], 250 nM; in test [4] it was 38 nM.

In the case of `CC(C)[C@@H](Nc1cc(Nc2ccc(C(=O)N(C)C)cn2)c2ncn(C)c2n1)C(F)(F)F` [Compound 97, N,N-dimethyl-6-[[3-methyl-5-[[(1R)-2-methyl-1-(trifluoromethyl)propyl]amino]imidazo[4,5-b]pyridin-7-yl]amino]pyridine-3-carboxamide], the IC50 in test [1] is 36.4 nM; in test [2], 3.08 nM; in test [3] it was 21.8 nM; in test [4], 6.29 nM.

As to `Cc1cc(C#N)ncc1Oc1cc(Nc2ccc(C(=O)NCCN(C)C)cn2)c2ncn(C)c2n1` [Compound 99, 6-[[5-[(6-cyano-4-methyl-3-pyridyl)oxy]-3-methyl-imidazo[4,5-b]pyridin-7-yl]amino]-N-(2-dimethylaminoethyl)pyridine-3-carboxamide], the IC50 in test [1] was 916 nM; in test [2], 17.8 nM; in test [3] it was 111 nM; in test [4], 51.1 nM.

As for `COCCCNC(=O)c1ccc(Nc2cc(Oc3cnc(C#N)cc3C)nc3c2ncn3C)nc1` [Compound 100, 6-[[5-[(6-cyano-4-methyl-3-pyridyl)oxy]-3-methyl-imidazo[4,5-b]pyridin-7-yl]amino]-N-(3-methoxypropyl)pyridine-3-carboxamide], the IC50 in test [1] is 912 nM; in test [2] it was 8.06 nM; in test [3] it was 63.5 nM; in test [4], 39.4 nM.

Turning to `Cc1cc(C#N)ncc1Oc1cc(Nc2ccc(N3CCC(N(C)C)CC3)cn2)c2ncn(C)c2n1` [Compound 181, 5-[7-[[5-[4-(dimethylamino)-1-piperidyl]-2-pyridyl]amino]-3-methyl-imidazo[4,5-b]pyridin-5-yl]oxy-4-methyl-pyridine-2-carbonitrile], the IC50 in test [1] amounted to 396 nM; in test [2], 7.08 nM; in test [3], 151 nM; in test [4], 36.9 nM.
